Source: patent US20230027066A1 (Urovant Sciences GmbH, priority 2019, published 2023)

System: men and women with overactive bladder
Assay: Phase 3 study of vibegron 75 mg vs placebo and tolterodine ER 4 mg, 12 weeks, efficacy (voiding and urine volume diary)
Format: in vivo, human
Details: for Patients with at Least 75% Reduction in Total Incontinence, Adjusted (%) / Patients with at Least 75% Reduction in Total Incontinence, Adjusted n / Patients with at Least 75% Reduction in Total Incontinence, Unadjusted (%) / Patients with at Least 75% Reduction in Total Incontinence, Unadjusted n / Total Incontinence 75% responders, Active - Placebo CMH Difference: FAS-I
Method: Enrollment of patients included individuals with OAB Wet (those with UUI, the involuntary loss of urine accompanied by urgency) and OAB Dry (those without UUI). A total of 1,518 patients were randomized across 215 study sites into one of three groups for a 12-week treatment period.
The study consisted of a Screening Period (1 to 5 weeks), a single-blind Run-in Period (2 weeks), a randomized double-blind Treatment Period (12 weeks), and a Follow-up Period (4 weeks).
Tolterodine ER 4 mg was the active control. […] Between the Baseline and Week 12 Visits, patients had study assessments at Week 4 and Week 8.
The Patient Voiding Diary was used by participants (via the eDiary or paper Diary) to record the frequency of daily OAB symptoms including all micturitions, urgency, incontinence, and main reason for incontinence by selecting the respective box for each symptom occurring during the course of a given day and night.
Urine volume data were collected separately by patients using the Urine Volume component of the eDiary, or the paper Urine Volume Chart. The Urine Volume Chart is a tool used in clinical practice and clinical investigation to assess voiding functions over a 24-hour period and is regarded as a useful instrument in the investigation of patients with voiding symptoms. Urine volume may be collected during any one (1) of the 7 Diary Days prior to the visit, and it should be recorded for ˜24 hours starting from the time the patient gets up for the day and continues until the time the patient gets up for the day on the next day.
For the purpose of this study, the number of micturitions was defined as the number of times a patient has voided in the toilet as indicated on the Patient Voiding Diary. Average daily micturitions were calculated using the daily entries in the Patient Voiding Diary, which was completed over the 7 days prior to each study visit. Average daily number of micturitions were calculated as the total number of micturitions that occurred on a Complete Diary Day divided by the number of Complete Diary Days in the Patient Voiding Diary. A complete diary day required confirmation by the patient in the Patient Voiding Diary that all voids and leakages had been recorded for the diary day. Baseline was defined as the average number of micturitions occurring during the last evaluable diary prior to the Baseline Visit.
The number of UUI episodes was defined as the number of times a patient had checked “urge” as the reason for accidental urine leakage. Average daily UUI episodes at each study visit were calculated in the same manner as described above for the micturition endpoint. The UUI endpoint were analyzed using only OAB Wet patients.
For the analysis of the co-primary endpoints (change from baseline in average number of daily micturitions at Week 12 and change from baseline in average number of daily urge urinary incontinence episodes at Week 12, and placebo adjustment of each), a mixed model for repeated measure (MMRM) with restricted maximum likelihood estimation was used. This model corrects for dropout and accounts for the fact that measurements taken on the same patient over time tend to be correlated by using all available information on patients within the same covariate set to derive an estimate of the treatment effect for a dropout-free population. The analysis model for each efficacy endpoint includes terms for treatment, visit, OAB Type (Wet vs Dry), Sex (Female vs Male), Region (US vs Rest of World), baseline score, and interaction of visit by treatment.
Primary inferences were drawn from treatment differences for the changes from baseline derived from the MMRM models at Week 12. As part of secondary objectives, the treatment differences for each post baseline visit were also derived using the same MMRM model. […]

[1] = Week 12, events of Events/Censored
[2] = Week 12, subpopulation Age ≥65 years
[3] = vibegron 75 mg or tolterodine ER 4 mg
[4] = vibegron 75 mg or tolterodine ER 4 mg once daily
[5] = vibegron 75 mg or tolterodine ER 4 mg once daily, OAB Wet
[6] = vibegron 75 mg or tolterodine ER 4 mg, OAB Wet

## Cc1ccc(O)c([C@H](CCN(C(C)C)C(C)C)c2ccccc2)c1 [Tolterodine ER, tolterodine, reference compound]
Week 12, co-primary endpoint
  Micturitions, Week 12 LS Mean Change from Baseline (Placebo-Adjusted): −0.3
  UUI Episodes, Week 12 LS Mean Change from Baseline (Placebo-Adjusted): −0.4
[1]
  First 50% Reduction in Urgency Episodes, Events: 164/253
  First 100% Reduction in UUI Episodes, Events: 74/245
Week 12, secondary endpoint
  Total Incontinence Episodes, Week 12 LS Mean Change from Baseline (Placebo-Adjusted): −0.5
  Urgency Episodes, Week 12 LS Mean Change from Baseline (Placebo-Adjusted): −0.4
[2]
  Micturitions, change at Week 12, mean (SD): −1.48 (2.15)
  UUI Episodes, change at Week 12, mean (SD): −1.80 (2.41)
Week 12, subpopulation Age ≥65 years, posthoc analysis
  Daily Urgency, change at Week 12: −2.1
Week 12, ≥65 yrs
  Micturitions: Week 12 CFB Mean (descriptive statistics): −1.48
Baseline to Week 2
  Patients with at Least 75% Reduction in Total Incontinence, Adjusted (%): 16.5%
  Patients with at Least 75% Reduction in Total Incontinence, Adjusted n: 53
  Patients with at Least 75% Reduction in Total Incontinence, Unadjusted (%): 18.2%
  Patients with at Least 75% Reduction in Total Incontinence, Unadjusted n: 58
  Total Incontinence 75% responders, Active - Placebo CMH Difference: 3.6
Baseline to Week 4
  Patients with at Least 75% Reduction in Total Incontinence, Adjusted (%): 23.5%
  Patients with at Least 75% Reduction in Total Incontinence, Adjusted n: 75
  Patients with at Least 75% Reduction in Total Incontinence, Unadjusted (%): 28.2%
  Patients with at Least 75% Reduction in Total Incontinence, Unadjusted n: 90
  Total Incontinence 75% responders, Active - Placebo CMH Difference: 3.7
Baseline to Week 8
  Patients with at Least 75% Reduction in Total Incontinence, Adjusted (%): 32.5%
  Patients with at Least 75% Reduction in Total Incontinence, Adjusted n: 104
  Patients with at Least 75% Reduction in Total Incontinence, Unadjusted (%): 36.4%
  Patients with at Least 75% Reduction in Total Incontinence, Unadjusted n: 116
  Total Incontinence 75% responders, Active - Placebo CMH Difference: 5.1
Baseline to Week 12
  Patients with at Least 75% Reduction in Total Incontinence, Adjusted (%): 39.9%
  Patients with at Least 75% Reduction in Total Incontinence, Adjusted n: 127
  Patients with at Least 75% Reduction in Total Incontinence, Unadjusted (%): 45.1%
  Patients with at Least 75% Reduction in Total Incontinence, Unadjusted n: 144
  Total Incontinence 75% responders, Active - Placebo CMH Difference: 8.4
Subgroup Age <65 years, vibegron 75 mg or tolterodine ER 4 mg
  UUI, Week 12 LS mean change from baseline (placebo adjusted) (95% CI): −0.2 (−0.6 to 0.2)
Subgroup Age ≥65 years, vibegron 75 mg or tolterodine ER 4 mg
  UUI, Week 12 LS mean change from baseline (placebo adjusted) (95% CI): −0.6 (−1.1 to −0.1)
Subgroup Age ≥75 years (posthoc analysis), vibegron 75 mg or tolterodine ER 4 mg
  UUI, Week 12 LS mean change from baseline (placebo adjusted) (95% CI): −1.6 (−2.5 to −0.7)
Subgroup Females, vibegron 75 mg or tolterodine ER 4 mg
  UUI, Week 12 LS mean change from baseline (placebo adjusted) (95% CI): −0.4 (−0.7 to −0.1)
Subgroup Males, vibegron 75 mg or tolterodine ER 4 mg
  UUI, Week 12 LS mean change from baseline (placebo adjusted) (95% CI): −0.5 (−1.4 to 0.4)
Subgroup Non-White, vibegron 75 mg or tolterodine ER 4 mg
  UUI, Week 12 LS mean change from baseline (placebo adjusted) (95% CI): 0.1 (−0.6 to 0.7)
Subgroup Region: Non-US, vibegron 75 mg or tolterodine ER 4 mg
  UUI, Week 12 LS mean change from baseline (placebo adjusted) (95% CI): −0.6 (−1.5 to 0.2)
Subgroup Region: US, vibegron 75 mg or tolterodine ER 4 mg
  UUI, Week 12 LS mean change from baseline (placebo adjusted) (95% CI): −0.3 (−0.7 to 0.0)
Subgroup White, vibegron 75 mg or tolterodine ER 4 mg
  UUI, Week 12 LS mean change from baseline (placebo adjusted) (95% CI): −0.5 (−0.8 to −0.2)
[3]
  average volume voided, placebo-adjusted mean change from baseline, week 12: 13.3 mL
  placebo-adjusted mean total daily incontinence episodes, week 12: −0.5 episodes
  proportion of patients (UUI responders) with 75% or more reduction in daily UUI episodes, week 12: 42.2%
[4]
  Micturitions, active-placebo LS mean difference, Week 2: −0.3
  Micturitions, active-placebo LS mean difference, Week 4: −0.4
  Micturitions, active-placebo LS mean difference, Week 8: −0.4
  Micturitions, active-placebo LS mean difference, Week 12: −0.3
  Micturitions, average daily number, Week 2 mean: 10.40
  Micturitions, average daily number, Week 4 mean: 10.10
  Micturitions, average daily number, Week 8 mean: 9.80
  Micturitions, average daily number, Week 12 mean: 9.58
  Micturitions, change from baseline LS mean, Week 2: −0.6
  Micturitions, change from baseline LS mean, Week 4: −0.9
  Micturitions, change from baseline LS mean, Week 8: −1.2
  Micturitions, change from baseline LS mean, Week 12: −1.6
[5]
  UUI episodes, active-placebo LS mean difference, Week 2: −0.4
  UUI episodes, active-placebo LS mean difference, Week 4: −0.4
  UUI episodes, active-placebo LS mean difference, Week 8: −0.4
  UUI episodes, average daily number, Week 2 mean: 2.24
  UUI episodes, average daily number, Week 4 mean: 2.06
  UUI episodes, average daily number, Week 8 mean: 1.74
  UUI episodes, average daily number, Week 12 mean: 1.55
  UUI episodes, change from baseline LS mean, Week 2: −1.2
  UUI episodes, change from baseline LS mean, Week 4: −1.4
  UUI episodes, change from baseline LS mean, Week 8: −1.6
  UUI episodes, change from baseline LS mean, Week 12: −1.8
Vibegron 75 mg or tolterodine ER 4 mg, Cox model with sex as covariate
  Time to first 75% reduction in UUI episodes, hazard ratio compared to placebo (proportional hazards): 1.276
[6]
  Estimated incidence of subjects with 75% decrease from baseline in UUI episodes, Week 2: 18.8
  Estimated incidence of subjects with 75% decrease from baseline in UUI episodes, Week 4: 20.7
  Estimated incidence of subjects with 75% decrease from baseline in UUI episodes, Week 8: 34.3
  Estimated incidence of subjects with 75% decrease from baseline in UUI episodes, Week 12: 45.7
  First 75% reduction in UUI episodes, Events/Censored, Week 2: 60/259
  First 75% reduction in UUI episodes, Events/Censored, Week 4: 66/253
  First 75% reduction in UUI episodes, Events/Censored, Week 8: 107/212
  First 75% reduction in UUI episodes, Events/Censored, Week 12: 140/179
  Overall time to first 75% decrease in UUI episodes, 25th percentile: 4.1 weeks
  Overall time to first 75% decrease in UUI episodes, 75th percentile: 14.2 weeks
  Overall time to first 75% decrease in UUI episodes, median (95% CI): 12.1 (8.6 to 12.3) weeks
  Time to first 75% decrease in UUI episodes, Events/Censored (overall): 166/153
